Legend:
Type in all cases: functional, cell-based
Conditions in all cases: dog, mdck-ii
[1] = target: T1, Broad substrate specificity ATP-binding cassette transporter ABCG2 (Mus musculus, UniProt Q7TMS5); test: TP_TRANSPORTER: transepithelial transport of PhIP (basal to apical) in Bcrp1-expressing MDCKII cells
T1 sequence (Q7TMS5 whole entry): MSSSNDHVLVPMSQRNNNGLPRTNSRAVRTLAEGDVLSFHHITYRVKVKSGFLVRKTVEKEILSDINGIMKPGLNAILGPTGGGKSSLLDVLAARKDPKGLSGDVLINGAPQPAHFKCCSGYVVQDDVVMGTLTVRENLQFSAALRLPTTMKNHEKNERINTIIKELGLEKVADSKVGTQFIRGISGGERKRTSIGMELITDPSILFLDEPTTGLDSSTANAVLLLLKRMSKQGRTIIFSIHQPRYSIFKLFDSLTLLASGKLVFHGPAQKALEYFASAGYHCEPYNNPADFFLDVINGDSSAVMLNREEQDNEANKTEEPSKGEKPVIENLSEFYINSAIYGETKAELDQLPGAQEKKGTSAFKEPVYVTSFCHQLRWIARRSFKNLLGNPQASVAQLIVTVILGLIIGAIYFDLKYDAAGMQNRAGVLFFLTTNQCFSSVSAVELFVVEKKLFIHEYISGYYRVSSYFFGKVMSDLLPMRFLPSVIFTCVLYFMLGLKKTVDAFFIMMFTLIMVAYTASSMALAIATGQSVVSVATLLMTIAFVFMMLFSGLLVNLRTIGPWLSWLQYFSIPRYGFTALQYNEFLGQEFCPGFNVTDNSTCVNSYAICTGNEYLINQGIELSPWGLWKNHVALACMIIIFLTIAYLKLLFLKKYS

[2] = target: T1, Broad substrate specificity ATP-binding cassette transporter ABCG2; test: TP_TRANSPORTER: transepithelial transport (basal to apical) in Bcrp1-expressing MDCKII cells
[3] = target: T2, Broad substrate specificity ATP-binding cassette transporter ABCG2 (Homo sapiens, UniProt Q9UNQ0); test: TP_TRANSPORTER: transepithelial transport (basal to apical) in BCRP-expressing MDCKII cells
T2 sequence (Q9UNQ0 whole entry): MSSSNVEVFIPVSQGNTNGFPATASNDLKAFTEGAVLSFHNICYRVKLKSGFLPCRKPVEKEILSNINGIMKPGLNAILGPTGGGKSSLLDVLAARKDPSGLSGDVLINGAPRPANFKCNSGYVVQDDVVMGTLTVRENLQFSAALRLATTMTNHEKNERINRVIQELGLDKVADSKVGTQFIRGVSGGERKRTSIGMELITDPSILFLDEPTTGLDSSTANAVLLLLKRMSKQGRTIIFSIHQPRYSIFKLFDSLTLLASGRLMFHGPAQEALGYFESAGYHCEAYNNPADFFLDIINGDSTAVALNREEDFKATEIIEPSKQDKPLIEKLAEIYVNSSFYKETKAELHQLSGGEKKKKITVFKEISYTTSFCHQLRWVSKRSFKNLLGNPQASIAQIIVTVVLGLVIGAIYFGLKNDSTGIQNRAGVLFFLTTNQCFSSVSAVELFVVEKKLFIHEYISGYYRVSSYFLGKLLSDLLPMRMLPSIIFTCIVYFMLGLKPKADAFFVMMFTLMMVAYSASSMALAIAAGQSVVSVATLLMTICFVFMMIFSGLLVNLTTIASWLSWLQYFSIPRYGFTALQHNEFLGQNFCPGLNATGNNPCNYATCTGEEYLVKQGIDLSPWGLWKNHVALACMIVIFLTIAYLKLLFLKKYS

[4] = target: T2, Broad substrate specificity ATP-binding cassette transporter ABCG2; test: TP_TRANSPORTER: transepithelial transport of PhIP (basal to apical) in BCRP-expressing MDCKII cells

| SMILES | Activity [1] | Activity [2] | Activity [3] | Activity [4] |
| --- | --- | --- | --- | --- |
| COc1ccc2c3c([nH]c2c1)[C@H](CC(C)C)N1C(=O)[C@H](CCC(=O)OC(C)(C)C)NC(=O)[C@@H]1C3 | inhibitor [] |  |  |  |
| CCC[S+]([O-])c1ccc2[nH]c(NC(=O)OC)nc2c1 (stereo unspecified) [ALBENDAZOLE OXIDE] |  | substrate [] | substrate [] |  |
| COC(=O)Nc1nc2ccc([S+]([O-])c3ccccc3)cc2[nH]1 (stereo unspecified) [OXFENDAZOLE] | inhibitor [] | substrate [] |  | inhibitor [] |

Source: ChEMBL document CHEMBL2074448, “Transport of anthelmintic benzimidazole drugs by breast cancer resistance protein (BCRP/ABCG2)” (Drug Metab Dispos, 2005)
